From ChEMBL document CHEMBL2062499, “Synthesis of benzofuran based 1,3,5-substituted pyrazole derivatives: as a new class of potent antioxidants and antimicrobials--a novel accost to amend biocompatibility” (Bioorg Med Chem Lett, 2012)

What was measured:
[1] = test system: Escherichia coli; assay: Antibacterial activity Escherichia coli ATCC 25922 at 1 mg/ml after 24 hrs by well plate method; format: functional; conditions: ATCC 25922, 24 h, read-out: DIZ
[2] = test system: Staphylococcus aureus; assay: Antibacterial activity Staphylococcus aureus ATCC 25923 at 1 mg/ml after 24 hrs by well plate method; format: functional; conditions: ATCC 25923, 24 h, read-out: DIZ
[3] = test system: Pseudomonas aeruginosa; assay: Antibacterial activity Pseudomonas aeruginosa ATCC 27853 at 1 mg/ml after 24 hrs by well plate method; format: functional; conditions: ATCC 27853, 24 h, read-out: DIZ
[4] = test system: Escherichia coli; assay: Antibacterial activity Escherichia coli ATCC 25922 at 0.5 mg/ml after 24 hrs by well plate method; format: functional; conditions: ATCC 25922, 24 h, read-out: DIZ
[5] = test system: Staphylococcus aureus; assay: Antibacterial activity Staphylococcus aureus ATCC 25923 at 0.5 mg/ml after 24 hrs by well plate method; format: functional; conditions: ATCC 25923, 24 h, read-out: DIZ
[6] = test system: Pseudomonas aeruginosa; assay: Antibacterial activity Pseudomonas aeruginosa ATCC 27853 at 0.5 mg/ml after 24 hrs by well plate method; format: functional; conditions: ATCC 27853, 24 h, read-out: DIZ
[7] = test system: Aspergillus flavus; assay: Antifungal activity against Aspergillus flavus MTCC 3306 at 1 mg/ml after 72 hrs by well plate method; format: functional; conditions: MTCC 3306, 72 h, read-out: DIZ
[8] = test system: Aspergillus flavus; assay: Antifungal activity against Aspergillus flavus MTCC 3306 at 0.5 mg/ml after 72 hrs by well plate method; format: functional; conditions: MTCC 3306, 72 h, read-out: DIZ
[9] = Antifungal activity against Chrysosporium keratinophilum MTCC 3017 at 1 mg/ml after 72 hrs by well plate method; format: functional
[10] = Antifungal activity against Chrysosporium keratinophilum MTCC 3017 at 0.5 mg/ml after 72 hrs by well plate method; format: functional
[11] = test system: Candida albicans; assay: Antifungal activity against Candida albicans MTCC 2827 at 1 mg/ml after 72 hrs by well plate method; format: functional; conditions: MTCC 2827, 72 h, read-out: DIZ
[12] = test system: Candida albicans; assay: Antifungal activity against Candida albicans MTCC 2827 at 0.5 mg/ml after 72 hrs by well plate method; format: functional; conditions: MTCC 2827, 72 h, read-out: DIZ
[13] = test system: Radical scavenging activity; assay: Antioxidant activity assessed as DPPH radical scavenging activity after 20 mins by UV-Vis spectrophotometric analysis; format: functional
[14] = test system: Liver microsomes; assay: Antioxidant activity in Wistar rat liver microsomes assessed as inhibition of microsomal lipid peroxidation after 15 mins by MDA-TBA assay; format: functional, Microsome

Row | Structure (SMILES) | zone of inhibition at 1000 µg/mL [1] [mm] | zone of inhibition at 1000 µg/mL [2] [mm] | zone of inhibition at 1000 µg/mL [3] [mm] | zone of inhibition at 500 µg/mL [4] [mm] | zone of inhibition at 500 µg/mL [5] [mm] | zone of inhibition at 500 µg/mL [6] [mm] | zone of inhibition at 1000 µg/mL [7] [mm] | zone of inhibition at 500 µg/mL [8] [mm] | inhibition zone (IZ) [9] [mm] | inhibition zone (IZ) [10] [mm] | zone of inhibition at 1000 µg/mL [11] [mm] | zone of inhibition at 500 µg/mL [12] [mm] | IC50 [13] [uM/ml] | IC50 [14] [uM/ml]
1 | COc1cc(C2CC(c3cc4ccccc4o3)=NN2C(=O)Nc2ccc(Br)cc2)ccc1O (stereo not drawn) | 16 | 8 | 10 | 10 | 6 | 7 | 6 | 4 | 10 | 9 | 19 | 15 | 105 | 115
2 | COc1cc(C2CC(c3cc4ccccc4o3)=NN2C(=O)Nc2ccc(C)cc2)ccc1O (stereo not drawn) | 5 | 4 | 4 | 4 | 3 | 3 | 3 | 2 | 3 | 1 | 3 | 1 | 37 | 44
3 | COc1cc(C2CC(c3cc4ccccc4o3)=NN2C(=O)Nc2cccc(O)c2)ccc1O (stereo not drawn) | 3 | 2 | 3 | 1 | 1 | 2 | 2 | 1 | 2 | 1 | 3 | 1 | 21 | 24
4 | COc1cc(C2CC(c3cc4ccccc4o3)=NN2C(=O)Nc2ccc(Cl)cc2)ccc1O (stereo not drawn) | 17 | 6 | 18 | 11 | 4 | 15 | 10 | 7 | 9 | 7 | 20 | 17 | 107 | 121
5 | COc1cc(C2CC(c3cc4ccccc4o3)=NN2C(=O)Nc2ccccc2O)ccc1O (stereo not drawn) | 3 | 2 | 4 | 1 | 1 | 2 | 2 | 1 | 4 | 2 | 4 | 3 | 19 | 22
6 | COc1cc(NC(=O)N2N=C(c3cc4ccccc4o3)CC2c2ccc(O)c(OC)c2)ccc1O (stereo not drawn) | 2 | 3 | 2 | 1 | 2 | 1 | 2 | 1 | 3 | 2 | 2 | 1 | 10 | 12
7 | COc1cc(C2CC(c3cc4ccccc4o3)=NN2)ccc1O (stereo not drawn) | 0 | 0 | 0 | 0 | 0 | 0 | 0 | 0 | 1 | 0 | 1 | 1 | 100 | 112
8 | COc1cc(C2CC(c3cc4ccccc4o3)=NN2C(=O)Nc2ccc([N+](=O)[O-])cc2)ccc1O (stereo not drawn) | 15 | 8 | 9 | 9 | 6 | 7 | 5 | 3 | 4 | 3 | 5 | 4 | 103 | 113
9 | COc1cc(C2CC(c3cc4ccccc4o3)=NN2C(=O)Nc2ccc(F)cc2)ccc1O (stereo not drawn) | 18 | 16 | 19 | 12 | 14 | 16 | 11 | 9 | 15 | 11 | 24 | 21 | 110 | 125
10 | COc1cc(C2CC(c3cc4ccccc4o3)=NN2C(=O)Nc2ccc(O)c(O)c2)ccc1O (stereo not drawn) | 2 | 2 | 5 | 1 | 1 | 3 | 3 | 2 | 2 | 1 | 2 | 1 | 9.5 | 11
11 | CN[C@@H]1[C@H](O[C@H]2[C@H](O[C@H]3[C@H](O)[C@@H](O)[C@H](N=C(N)N)[C@@H](O)[C@@H]3N=C(N)N)O[C@@H](C)[C@]2(O)C=O)O[C@@H](CO)[C@H](O)[C@H]1O [STREPTOMYCIN] | 16 | 15 | 16 | 10 | 10 | 13 |  |  |  |  |  |  |  | 
12 | COc1cc(C2CC(c3cc4ccccc4o3)=NN2C(=O)Cl)ccc1O (stereo not drawn) | 3 | 2 | 2 | 2 | 1 | 2 | 2 | 1 | 3 | 2 | 4 | 3 | 135 | 147
13 | OC(Cn1cncn1)(Cn1cncn1)c1ccc(F)cc1F [FLUCONAZOLE] |  |  |  |  |  |  | 13 | 10 | 17 | 15 | 22 | 20 |  | 
14 | COc1cc(C2CC(c3cc4ccccc4o3)=NN2C(=O)Nc2ccccc2)ccc1O (stereo not drawn) | 2 | 3 | 2 | 1 | 2 | 1 | 2 | 1 | 3 | 2 | 2 | 1 | 121 | 116
15 | COc1ccc(NC(=O)N2N=C(c3cc4ccccc4o3)CC2c2ccc(O)c(OC)c2)cc1 (stereo not drawn) | 13 | 2 | 7 | 1 | 1 | 5 | 4 | 3 | 4 | 2 | 5 | 3 | 25 | 29
16 | COc1cc(C2CC(c3cc4ccccc4o3)=NN2C(=O)Nc2ccc(O)cc2)ccc1O (stereo not drawn) | 3 | 2 | 3 | 2 | 1 | 2 | 3 | 2 | 2 | 1 | 4 | 2 | 17 | 15
